Measurements published in ChEMBL document CHEMBL1201862, “PubChem BioAssay data set” (2004).
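Method: 48-hour compound exposure of cells in 96-well plates, five concentrations, linear interpolation of endpoints. At the GI50, growth is halved.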 The source made the active and inactive calls. No stated cut-off is given here; in the data, active = GI50 up to about 1.1 µM and inactive = higher.

Experiments:
Assay in all cases: NCI tumour cell line growth inhibition, 48 h
786-0 = system: 786-0
A498 = system: A498
A549 = system: A549
ACHN = system: ACHN
CAKI-1 = system: CAKI-1
CCRF-CEM = system: CCRF-CEM
COLO 205 = system: COLO 205
DLD-1 = system: DLD-1
DMS-114 = system: DMS-114
DMS-273 = system: DMS-273
EKVX = system: EKVX
HCC 2998 = system: HCC 2998
HCT-116 = system: HCT-116
HCT-15 = system: HCT-15
HL-60 = system: HL-60
HOP-18 = system: HOP-18
HOP-62 = system: HOP-62
HOP-92 = system: HOP-92
HT-29 = system: HT-29
IGROV-1 = system: IGROV-1
K562 = system: K562
KM-20L2 = system: KM-20L2
KM12 = system: KM12
LOX IMVI = system: LOX IMVI
LXFL 529 = system: LXFL 529
M14 = system: M14
M19-MEL = system: M19-MEL
MOLT-4 = system: MOLT-4
Malme-3M = system: Malme-3M
NCI-H226 = system: NCI-H226
NCI-H23 = system: NCI-H23
NCI-H460 = system: NCI-H460
NCI-H522 = system: NCI-H522
OVCAR-3 = system: OVCAR-3
OVCAR-4 = system: OVCAR-4
OVCAR-5 = system: OVCAR-5
OVCAR-8 = system: OVCAR-8
RPMI-8226 = system: RPMI-8226
RXF 393 = system: RXF 393
RXF 631 = system: RXF 631
SF-268 = system: SF-268
SF-295 = system: SF-295
SF-539 = system: SF-539
SK-MEL-28 = system: SK-MEL-28
SK-MEL-2 = system: SK-MEL-2
SK-MEL-5 = system: SK-MEL-5
SK-OV-3 = system: SK-OV-3
SN12C = system: SN12C
SNB-19 = system: SNB-19
SNB-75 = system: SNB-75
SNB-78 = system: SNB-78
SR = system: SR
SW-620 = system: SW-620
U-251 = system: U-251
UACC-257 = system: UACC-257
UACC-62 = system: UACC-62
UO-31 = system: UO-31
XF498 = system: XF498

For `CC(C)CC1CC2C(=O)N(c3ccccc3)C(=O)C2c2[nH]c3ccccc3c21` (stereo not drawn), the GI50 (786-0) was 66.5 µM (inactive), the GI50 (A498) was > 36.3 µM (inactive) and the GI50 (A549) was 22.4 µM (inactive). For the same compound, the GI50 (ACHN) was 38 µM (inactive), the GI50 (CAKI-1) was 18.7 µM (inactive) and the GI50 (CCRF-CEM) was 16 µM (inactive). For the same compound, the GI50 (COLO 205) was 31 µM (inactive), the GI50 (DLD-1) was 29 µM (inactive) and the GI50 (DMS-114) was 15.9 µM (inactive). The GI50 (DMS-273) was 26.9 µM (inactive), the GI50 (EKVX) was > 52.2 µM (inactive) and the GI50 (HCC 2998) was 17.4 µM (inactive). For the same compound, the GI50 (HCT-116) was 11.4 µM (inactive), the GI50 (HCT-15) was 17.3 µM and the GI50 (HL-60) was 15.3 µM (inactive). For the same compound, the GI50 (HOP-18) was 11.4 µM (inactive), the GI50 (HOP-62) was 18.8 µM (inactive) and the GI50 (HOP-92) was 18.6 µM (inactive). For the same compound, the GI50 (HT-29) was 51.9 µM (inactive), the GI50 (IGROV-1) was 17.7 µM (inactive) and the GI50 (K562) was 6.1 µM (inactive). For the same compound, the GI50 (KM-20L2) was > 100 µM (inactive), the GI50 (KM12) was 52.7 µM (inactive) and the GI50 (LOX IMVI) was 16.8 µM (inactive). The GI50 (LXFL 529) was 60 µM (inactive), the GI50 (M14) was 28.2 µM (inactive) and the GI50 (M19-MEL) was 34.2 µM (inactive). The GI50 (MOLT-4) was 17.9 µM (inactive), the GI50 (Malme-3M) was 9.73 µM (inactive) and the GI50 (NCI-H226) was 24.5 µM (inactive). For the same compound, the GI50 (NCI-H23) was > 45.1 µM (inactive), the GI50 (NCI-H460) was 29.2 µM (inactive) and the GI50 (NCI-H522) was 20.9 µM (inactive). For the same compound, the GI50 (OVCAR-3) was 13.1 µM (inactive), the GI50 (OVCAR-4) was 8.3 µM (inactive) and the GI50 (OVCAR-5) was > 100 µM (inactive). The GI50 (OVCAR-8) was 14.9 µM (inactive), the GI50 (RPMI-8226) was 29.2 µM (inactive) and the GI50 (RXF 393) was 14.6 µM (inactive). For the same compound, the GI50 (RXF 631) was 15.2 µM (inactive), the GI50 (SF-268) was > 56.2 µM (inactive) and the GI50 (SF-295) was 20.7 µM (inactive). The GI50 (SF-539) was 23.2 µM (inactive), the GI50 (SK-MEL-28) was 27 µM (inactive) and the GI50 (SK-MEL-2) was 25.6 µM (inactive). The GI50 (SK-MEL-5) was > 80.9 µM (inactive), the GI50 (SK-OV-3) was 21.4 µM (inactive) and the GI50 (SN12C) was 13.9 µM (inactive). The GI50 (SNB-19) was 40.9 µM (inactive), the GI50 (SNB-75) was 13.1 µM (inactive) and the GI50 (SNB-78) was > 74.3 µM (inactive). The GI50 (SR) was 10.4 µM (inactive), the GI50 (SW-620) was 23.8 µM (inactive) and the GI50 (U-251) was 25 µM (inactive). The GI50 (UACC-257) was 26.5 µM (inactive), the GI50 (UACC-62) was 12.4 µM (inactive) and the GI50 (UO-31) was 26.4 µM (inactive). For the same compound, the GI50 (XF498) was 20.3 µM (inactive).
